Test results: ChEMBL document CHEMBL3525933 (Drug Metab Dispos, 2012)

Assays:
[1] = Tmax in conventional Wistar rat at 400 mg/kg, po administered as single dose by HPLC-DAD analysis; assay type: ADME, organism-based; design: dose 400 mg/kg, route oral; conditions: in vivo
[2] = system: Plasma; test: Drug recovery in Wistar rat plasma at 500 ng/ml by HPLC-DAD analysis; assay type: ADME, cell-free
[3] = AUC(0 to infinity) in pseudo-germ free Wistar rat at 400 mg/kg, po administered as single dose by HPLC-DAD analysis; assay type: ADME, organism-based; design: time infinity, dose 400 mg/kg, route oral; conditions: plasma
[4] = AUC(0 to t) in pseudo-germ free Wistar rat at 400 mg/kg, po administered as single dose by HPLC-DAD analysis; assay type: ADME, organism-based; design: dose 400 mg/kg, route oral; conditions: plasma
[5] = AUC(0 to t) in streptozotocin-induced diabetic Wistar rat at 400 mg/kg, po administered as single dose by HPLC-DAD analysis; assay type: ADME, organism-based; design: dose 400 mg/kg, route oral; conditions: plasma
[6] = system: Plasma; test: Drug metabolism in conventional Wistar rat plasma assessed as norathyriol metabolite formation at 400 mg/kg, po administered as single dose by HPLC-DAD analysis; assay type: ADME, organism-based; design: dose 400 mg/kg, route oral; conditions: in vivo
[7] = Cmax in conventional Wistar rat at 400 mg/kg, po administered as single dose by HPLC-DAD analysis; assay type: ADME, organism-based; design: dose 400 mg/kg, route oral; conditions: in vivo
[8] = Tmax in streptozotocin-induced diabetic Wistar rat at 400 mg/kg, po administered as single dose by HPLC-DAD analysis; assay type: ADME, organism-based; design: dose 400 mg/kg, route oral; conditions: in vivo
[9] = system: Plasma; test: Drug metabolism in conventional Wistar rat plasma assessed as 1,7-dihydroxyxanthone metabolite formation at 400 mg/kg, po administered as single dose by HPLC-DAD analysis; assay type: ADME, organism-based; design: dose 400 mg/kg, route oral; conditions: in vivo
[10] = MRT(0 to t) in pseudo-germ free Wistar rat at 400 mg/kg, po administered as single dose by HPLC-DAD analysis; assay type: ADME, organism-based; design: dose 400 mg/kg, route oral; conditions: in vivo
[11] = Elimination half life in streptozotocin-induced diabetic Wistar rat at 400 mg/kg, po administered as single dose by HPLC-DAD analysis; assay type: ADME, organism-based; design: dose 400 mg/kg, route oral; conditions: in vivo, read-out: beta t1/2 (converted)
[12] = MRT(0 to infinity) in pseudo-germ free Wistar rat at 400 mg/kg, po administered as single dose by HPLC-DAD analysis; assay type: ADME, organism-based; design: dose 400 mg/kg, route oral; conditions: in vivo
[13] = Drug excretion in streptozotocin-induced diabetic Wistar rat feces assessed as norathyriol metabolite level at 400 mg/kg, po administered as single dose by HPLC-DAD analysis; assay type: ADME, organism-based; design: dose 400 mg/kg, route oral; conditions: in vivo
[14] = system: Plasma; test: Drug level in streptozotocin-induced diabetic Wistar rat plasma treated with mangiferin at 400 mg/kg, po administered as single dose by HPLC-DAD analysis; assay type: ADME, organism-based; design: dose 400 mg/kg, route oral; conditions: in vivo
[15] = system: Plasma; test: Drug metabolism in pseudo-germ free Wistar rat plasma assessed as norathyriol metabolite formation at 400 mg/kg, po administered as single dose by HPLC-DAD analysis; assay type: ADME, organism-based; design: dose 400 mg/kg, route oral; conditions: in vivo
[16] = Apparent oral clearance in pseudo-germ free Wistar rat at 400 mg/kg, po administered as single dose by HPLC-DAD analysis; assay type: ADME, organism-based; design: dose 400 mg/kg, route oral; conditions: in vivo
[17] = Drug excretion in streptozotocin-induced diabetic Wistar rat urine assessed as 1,7-dihydroxyxanthone metabolite level at 400 mg/kg, po administered as single dose by HPLC-DAD analysis; assay type: ADME, organism-based; design: dose 400 mg/kg, route oral; conditions: in vivo
[18] = system: Plasma; test: Drug metabolism in pseudo-germ free Wistar rat plasma assessed as 1,7-dihydroxyxanthone metabolite formation at 400 mg/kg, po administered as single dose by HPLC-DAD analysis; assay type: ADME, organism-based; design: dose 400 mg/kg, route oral; conditions: in vivo
[19] = system: Plasma; test: Drug recovery in Wistar rat plasma at 2000 ng/ml by HPLC-DAD analysis; assay type: ADME, cell-free
[20] = system: Plasma; test: Stability in Wistar rat plasma measured within three freeze thaw cycles by HPLC-DAD analysis; assay type: ADME, cell-free
[21] = MRT(0 to t) in streptozotocin-induced diabetic Wistar rat at 400 mg/kg, po administered as single dose by HPLC-DAD analysis; assay type: ADME, organism-based; design: dose 400 mg/kg, route oral; conditions: in vivo
[22] = Drug excretion in pseudo-germ free Wistar rat feces assessed as norathyriol metabolite level at 400 mg/kg, po administered as single dose by HPLC-DAD analysis; assay type: ADME, organism-based; design: dose 400 mg/kg, route oral; conditions: in vivo
[23] = Elimination half life in pseudo-germ free Wistar rat at 400 mg/kg, po administered as single dose by HPLC-DAD analysis; assay type: ADME, organism-based; design: dose 400 mg/kg, route oral; conditions: in vivo, read-out: beta t1/2 (converted)
[24] = Drug excretion in pseudo-germ free Wistar rat urine assessed as norathyriol metabolite level at 400 mg/kg, po administered as single dose by HPLC-DAD analysis; assay type: ADME, organism-based; design: dose 400 mg/kg, route oral; conditions: in vivo
[25] = AUC(0 to t) in conventional Wistar rat at 400 mg/kg, po administered as single dose by HPLC-DAD analysis; assay type: ADME, organism-based; design: dose 400 mg/kg, route oral; conditions: plasma
[26] = Drug excretion in conventional Wistar rat feces assessed as norathyriol metabolite level at 400 mg/kg, po administered as single dose by HPLC-DAD analysis; assay type: ADME, organism-based; design: dose 400 mg/kg, route oral; conditions: in vivo
[27] = Apparent oral clearance in streptozotocin-induced diabetic Wistar rat at 400 mg/kg, po administered as single dose by HPLC-DAD analysis; assay type: ADME, organism-based; design: dose 400 mg/kg, route oral; conditions: in vivo
[28] = Drug excretion in streptozotocin-induced diabetic Wistar rat urine assessed as unchanged drug level at 400 mg/kg, po administered as single dose by HPLC-DAD analysis; assay type: ADME, organism-based; design: dose 400 mg/kg, route oral; conditions: in vivo
[29] = Cmax in streptozotocin-induced diabetic Wistar rat at 400 mg/kg, po administered as single dose by HPLC-DAD analysis; assay type: ADME, organism-based; design: dose 400 mg/kg, route oral; conditions: in vivo
[30] = Drug excretion in conventional Wistar rat urine assessed as norathyriol metabolite level at 400 mg/kg, po administered as single dose by HPLC-DAD analysis; assay type: ADME, organism-based; design: dose 400 mg/kg, route oral; conditions: in vivo

`O=c1c2cc(O)c(O)cc2oc2cc(O)c([C@@H]3O[C@H](CO)[C@@H](O)[C@H](O)[C@H]3O)c(O)c12` [MANGIFERIN] gave a Tmax [1] of 0.73 h, a Drug recovery [2] of 75.5% and an AUC(0-inf) [3] of 4340 ng·h/mL. The AUC(0-t) [4] was 4320 ng·h/mL, the AUC(0-t) [5] was 8930 ng·h/mL and the Drug metabolism [6] was “metabolite_not_detected”. For the same molecule, the Cmax [7] was 715 ng/mL, the Tmax [8] was 2.25 h and the Drug metabolism [9] was “metabolite_not_detected”. The MRT last [10] was 7.42 h, the half-life [11] was 2.6 h and the MRT inf [12] was 7.52 h. For the same molecule, the Drug excretion [13] was “metabolite_detected”, the Drug metabolism [14] was “metabolite_detected” and the Drug metabolism [15] was “metabolite_not_detected”. For the same molecule, the CL/F [16] was 1690 mL/min/kg, the Drug excretion [17] was “metabolite_detected” and the Drug metabolism [18] was “metabolite_not_detected”. For the same molecule, the Drug recovery [19] was 75.8%, the Stability [20] was “Stable” and the MRT last [21] was 5.4 h. For the same molecule, the Drug excretion [22] was “metabolite_not_detected”, the half-life [23] was 2.59 h and the Drug excretion [24] was “metabolite_not_detected”. For the same molecule, the AUC(0-t) [25] was 3800 ng·h/mL, the Drug excretion [26] was “metabolite_detected” and the CL/F [27] was 772 mL/min/kg. For the same molecule, the Drug excretion [28] was “metabolite_detected”, the Cmax [29] was 2000 ng/mL and the Drug excretion [30] was “metabolite_detected”.
